{"source": "patent US5610161A", "about": "“Therapeutic agents” (The Boots Company PLC, priority 1992, dated 1997)", "key": {"[1]": {"tested_on": "reserpine-induced fall in body temperature", "assay": "Test 1: reversal of reserpine-induced hypothermia in mice, oral", "type": "in vivo, mice (Charles River CD1 strain, male)", "conditions": "for ED50: Mus musculus, read-out: Test 1 ED50 (dose causing 50% reversal of the reserpine-induced fall in body temperature)", "experimental": "Male mice of the Charles River CD1 strain weighing between 18 and 30 g were separated into groups of five and were supplied with food and water ad libitum. After five hours the body temperature of each mouse was taken orally and the mice were injected intraperitoneally with reserpine (10 mg/kg) in solution in deionised water containing ascorbic acid (50 mg/ml). The amount of liquid injected was 10 ml/kg of body weight. Nine hours after the start of the test food was withdrawn but water was still available ad libitum. Twenty-four hours after the start of the test the temperatures of the mice were taken and the mice were given the test compound orally at a dose volume of 10 ml/kg of body weight. The compound was administered in aqueous solution. Three hours later the temperatures of all the mice were again taken. The percentage reversal of the reserpine-induced fall in body temperature was then calculated by the formula: [formula] The percentage reversal value for each group of five mice was determined at more than one dose rate to enable a value of the dose which causes a 50% reversal (ED50) to be obtained."}, "reserpine-induced ptosis": {"tested_on": "reserpine-induced ptosis", "assay": "Test 2: prevention of reserpine-induced ptosis (eye closure) in rats, oral", "type": "in vivo, rats (Charles River CD strain, male)", "conditions": "for ED50: Rattus norvegicus, read-out: Test 2 ED50 (dose causing 50% prevention of the reserpine-induced ptosis)", "text": "Male rats of the Charles River CD strain weighing between 140 and 180 g were randomly separated into five rats in each cage and supplied with food and water ad libitum. Eighteen hours prior to initiation of the test four of the five rats were marked with a pen such that each rat was individually identifiable; food was then withdrawn. The following morning, two hours before the test, the rats were weighed and a semi-randomised code was used to allocate treatments to rats. The test commenced by orally administering either:\na) the test compound in solution in deionised water at a dose volume of 10 ml/kg of body weight, followed by immediate intravenous injection of 1 ml/kg of body weight of reserpine (0.75 mg/kg) in solution in deionised water containing 238 mM citric acid, 1.02% v/v Tween 80 and 0.2% v/v benzyl alcohol (treated group);\nb) deionised water at a dose volume of 10 ml/kg of body weight, followed by immediate intravenous injection of 1 ml/kg of body weight of reserpine (0.75 mg/kg) in solution in deionised water containing 238 mM citric acid, 1.02% v/v Tween 80 and 0.2% v/v benzyl alcohol (positive control group); or\nc) deionised water at a dose volume of 10 ml/kg of body weight, followed by immediate intravenous injection of 1 ml/kg of body weight of deionised water containing 238 mM citric acid, 1.02% v/v Tween 80 and 0.2% v/v benzyl alcohol (negative control group).\nThe degree of prosis was scored 45 seconds and 75 seconds later using the following observer rating system: 0=eye fully open, 1=eye 1/4 closed, 2=eye 1/2 closed, 3=eye 3/4 closed, 4=eye fully closed. A mean ptosis score was then calculated for all identically treated rats usually comprising a group of eight rats. […] The mean ptosis score for each group of treated rats was determined at more than one dose of test compound to enable a value for the dose (ED50) which causes a 50% prevention of the reserpine-induced ptosis to be obtained."}, "[2]": {"conditions": "mice, oral, reserpine 10 mg/kg i.p., temperature 3 h after compound"}, "[3]": {"conditions": "rats, oral, reserpine 0.75 mg/kg i.v., ptosis scored 3 h later"}}, "note": "Counter-ions that a name gives are not always drawn. Like-named read-outs stand apart in the source and are kept apart here."}
{"smiles": "OC1(c2ccc(Cl)cc2)CCCNC12CCCCC2", "note": "(centres unmarked) [Example 1, 5-(4-chlorophenyl)-5-hydroxy-1-azaspiro[5.5]undecane]", "values": [{"measurement": "Test 1 ED50 (dose causing 50% reversal of the reserpine-induced fall in body temperature)", "setting": "[1]; [2]", "result": "Inactive @ 30"}, {"measurement": "ED50", "setting": "reserpine-induced ptosis; [3]", "result": 11.3, "unit": "mg/kg"}]}
{"smiles": "OC1(c2cccc(Cl)c2)CCCNC12CCCCC2", "note": "(centres unmarked) [Example 2, 5-(3-chlorophenyl)-5-hydroxy-1-azaspiro[5.5]undecane]", "values": [{"measurement": "ED50", "setting": "[1]; [2]", "result": "~16", "unit": "mg/kg"}, {"measurement": "ED50", "setting": "reserpine-induced ptosis; [3]", "result": 8.1, "unit": "mg/kg"}]}
{"smiles": "OC1(c2ccc(Cl)c(Cl)c2)CCCNC12CCCCC2", "note": "(centres unmarked) [Example 3, 5-(3,4-dichlorophenyl)-5-hydroxy-1-azaspiro[5.5]undecane]", "values": [{"measurement": "ED50", "setting": "[1]; [2]", "result": 10.7, "unit": "mg/kg"}, {"measurement": "ED50", "setting": "reserpine-induced ptosis; [3]", "result": 7.7, "unit": "mg/kg"}]}
{"smiles": "CCN1CCCC(O)(c2ccc(Cl)cc2)C12CCCCC2.Cl", "note": "(centres unmarked) [Example 4, 5-(4-chlorophenyl)-1-ethyl-5-hydroxy-1-azaspiro[5.5]undecane hydrochloride]", "values": [{"measurement": "Test 1 ED50 (dose causing 50% reversal of the reserpine-induced fall in body temperature)", "setting": "[1]; [2]", "result": "Inactive @ 30"}, {"measurement": "ED50", "setting": "reserpine-induced ptosis; [3]", "result": 2.2, "unit": "mg/kg"}]}
{"smiles": "Clc1ccc(C2=CCCNC23CCCCC3)cc1.O=S(=O)(O)O", "note": "[Example 5, 5-(4-chlorophenyl)-1-azaspiro[5.5]undec-4-ene sulphate]", "values": [{"measurement": "ED50", "setting": "[1]; po, 3 h", "result": "~20", "unit": "mg/kg"}, {"measurement": "ED50", "setting": "reserpine-induced ptosis; po, 3 h", "result": 7, "unit": "mg/kg"}]}
{"smiles": "Clc1ccc(C2=CCCNC23CCCCC3)cc1", "note": "[Example 6, 5-(4-chlorophenyl)-1-azaspiro[5.5]undec-4-ene 0.5 sulphate, 2.1 hydrate]", "values": [{"measurement": "ED50", "setting": "[1]; [2]", "result": 14.1, "unit": "mg/kg"}, {"measurement": "ED50", "setting": "reserpine-induced ptosis; [3]", "result": 2.7, "unit": "mg/kg"}]}
{"smiles": "Cl.Clc1ccc(C2=CCCNC23CCCCC3)cc1", "note": "[Example 7, 5-(4-chlorophenyl)-1-azaspiro[5.5]undec-4-ene hydrochloride]", "values": [{"measurement": "ED50", "setting": "[1]; [2]", "result": 2, "unit": "mg/kg"}, {"measurement": "ED50", "setting": "reserpine-induced ptosis; [3]", "result": 1.4, "unit": "mg/kg"}]}
{"smiles": "Cl.Clc1cccc(C2=CCCNC23CCCCC3)c1", "note": "[Example 8, 5-(3-chlorophenyl)-1-azaspiro[5.5]undec-4-ene hydrochloride]", "values": [{"measurement": "ED50", "setting": "[1]; po, 3 h", "result": 16.4, "unit": "mg/kg"}, {"measurement": "ED50", "setting": "reserpine-induced ptosis; po, 3 h", "result": 5.1, "unit": "mg/kg"}]}
{"smiles": "Cl.Clc1ccc(C2=CCCNC23CCCCC3)cc1Cl", "note": "[Example 9, 5-(3,4-dichlorophenyl)-1-azaspiro[5.5]undec-4-ene hydrochloride]", "values": [{"measurement": "ED50", "setting": "[1]; [2]", "result": "~11", "unit": "mg/kg"}, {"measurement": "ED50", "setting": "reserpine-induced ptosis; [3]", "result": 3.9, "unit": "mg/kg"}]}
{"smiles": "Fc1ccc(C2=CCCNC23CCCCC3)cc1.O=S(=O)(O)O", "note": "[Example 10, 5-(4-fluorophenyl)-1-azaspiro[5.5]undec-4-ene sulphate]", "values": [{"measurement": "ED50", "setting": "[1]; po, 3 h", "result": "~18", "unit": "mg/kg"}, {"measurement": "ED50", "setting": "reserpine-induced ptosis; po, 3 h", "result": 8.5, "unit": "mg/kg"}]}
{"smiles": "Cl.FC(F)(F)c1cccc(C2=CCCNC23CCCCC3)c1", "note": "[Example 11, 5-[3-(trifluoromethyl)phenyl]-1-azaspiro[5.5]undec-4-ene hydrochloride]", "values": [{"measurement": "ED50", "setting": "[1]; [2]", "result": "~22", "unit": "mg/kg"}, {"measurement": "Test 2 ED50 (dose causing 50% prevention of the reserpine-induced ptosis)", "setting": "reserpine-induced ptosis; [3]", "result": "Inactive @ 30"}]}
{"smiles": "C1=C(c2ccc3ccccc3c2)C2(CCCCC2)NCC1.Cl", "note": "[Example 12, 5-(2-naphthyl)-1-azaspiro[5.5]undec-4-ene hydrochloride]", "values": [{"measurement": "ED50", "setting": "[1]; [2]", "result": 11.9, "unit": "mg/kg"}, {"measurement": "ED50", "setting": "reserpine-induced ptosis; [3]", "result": 11.9, "unit": "mg/kg"}]}
{"smiles": "Cl.Oc1ccc(C2=CCCNC23CCCCC3)cc1", "note": "[Example 13, 5-(4-hydroxyphenyl)-1-azaspiro[5.5]undec-4-ene hydrochloride]", "values": [{"measurement": "Test 1 ED50 (dose causing 50% reversal of the reserpine-induced fall in body temperature)", "setting": "[1]; [2]", "result": "Inactive @ 30"}, {"measurement": "ED50", "setting": "reserpine-induced ptosis; [3]", "result": 21.8, "unit": "mg/kg"}]}
{"smiles": "CN1CCC=C(c2ccc(Cl)cc2)C12CCCCC2.Cl", "note": "[Example 14, 5-(4-chlorophenyl)-1-methyl-1-azaspiro[5.5]undec-4-ene hydrochloride]", "values": [{"measurement": "ED50", "setting": "[1]; [2]", "result": "~12", "unit": "mg/kg"}, {"measurement": "ED50", "setting": "reserpine-induced ptosis; [3]", "result": 30, "unit": "mg/kg"}]}
{"smiles": "Clc1ccc(C2=CCCNC23CCCCC3)cc1.O=C(O)/C=C/C(=O)O", "note": "[Example 15, 5-(4-chlorophenyl)-1-azaspiro[5.5]undec-4-ene fumarate]", "values": [{"measurement": "ED50", "setting": "[1]; [2]", "result": 6.9, "unit": "mg/kg"}, {"measurement": "ED50", "setting": "reserpine-induced ptosis; [3]", "result": 3.8, "unit": "mg/kg"}]}
{"smiles": "CS(=O)(=O)O.Clc1ccc(C2=CCCNC23CCCCC3)cc1", "note": "[Example 16, 5-(4-chlorophenyl)-1-azaspiro[5.5]undec-4-ene methanesulphonate]", "values": [{"measurement": "ED50", "setting": "[1]; [2]", "result": 9.4, "unit": "mg/kg"}, {"measurement": "ED50", "setting": "reserpine-induced ptosis; [3]", "result": 3.3, "unit": "mg/kg"}]}
{"smiles": "Clc1ccc(C2=CCCNC23CCCC3)cc1.O=S(=O)(O)O", "note": "[Example 17, 10-(4-chlorophenyl)-6-azaspiro[4.5]dec-9-ene sulphate]", "values": [{"measurement": "ED50", "setting": "[1]; po, 3 h", "result": "~23", "unit": "mg/kg"}, {"measurement": "ED50", "setting": "reserpine-induced ptosis; po, 3 h", "result": 3.1, "unit": "mg/kg"}]}
{"smiles": "Cl.Clc1ccc(C2CCCNC23CCCCC3)cc1", "note": "(centres unmarked) [Example 18, 5-(4-chlorophenyl)-1-azaspiro[5.5]undecane hydrochloride]", "values": [{"measurement": "ED50", "setting": "[1]; [2]", "result": 4.8, "unit": "mg/kg"}, {"measurement": "ED50", "setting": "reserpine-induced ptosis; [3]", "result": 0.5, "unit": "mg/kg"}]}
{"smiles": "COc1ccc(C2CCCNC23CCCCC3)cc1.Cl", "note": "(centres unmarked) [Example 19, 5-(4-methoxyphenyl)-1-azaspiro[5.5]undecane hydrochloride]", "values": [{"measurement": "ED50", "setting": "[1]; [2]", "result": "~14", "unit": "mg/kg"}, {"measurement": "ED50", "setting": "reserpine-induced ptosis; [3]", "result": 5.8, "unit": "mg/kg"}]}
{"smiles": "CCCN1CCC=C(c2ccc(Cl)cc2)C12CCCCC2", "note": "[Example 20, 5-(4-chlorophenyl)-1-propyl-1-azaspiro[5.5]undec-4-enehydrochloride]", "values": [{"measurement": "ED50", "setting": "[1]; [2]", "result": "~26", "unit": "mg/kg"}, {"measurement": "ED50", "setting": "reserpine-induced ptosis; [3]", "result": 3, "unit": "mg/kg"}]}
{"smiles": "C=CCN1CCC=C(c2ccc(Cl)cc2)C12CCCCC2.O=C(O)/C=C\\C(=O)O", "note": "[Example 21, 1-allyl-5-(4-chlorophenyl)-1-azaspiro[5.5]undec-4-ene maleate]", "values": [{"measurement": "Test 1 ED50 (dose causing 50% reversal of the reserpine-induced fall in body temperature)", "setting": "[1]; [2]", "result": "Inactive @ 30"}, {"measurement": "ED50", "setting": "reserpine-induced ptosis; [3]", "result": 9.1, "unit": "mg/kg"}]}
{"smiles": "COCCN1CCC=C(c2ccc(Cl)cc2)C12CCCCC2", "note": "[Example 22, 5-(4-chlorophenyl)-1-(2-methoxyethyl)-1-azaspiro[5.5]undec-4-ene 1.25 hydrochloride]", "values": [{"measurement": "ED50", "setting": "[1]; [2]", "result": "~30", "unit": "mg/kg"}, {"measurement": "ED50", "setting": "reserpine-induced ptosis; [3]", "result": 10.1, "unit": "mg/kg"}]}
{"smiles": "C1=C(c2ccccc2)C2(CCCCC2)NCC1.Cl", "note": "[Example 24, 5-phenyl-1-azaspiro[5.5]undec-4-ene hydrochloride]", "values": [{"measurement": "ED50", "setting": "[1]; [2]", "result": "~11.5", "unit": "mg/kg"}, {"measurement": "Test 2 ED50 (dose causing 50% prevention of the reserpine-induced ptosis)", "setting": "reserpine-induced ptosis; [3]", "result": "Inactive @ 30"}]}
{"smiles": "C1=C(c2ccc(-c3ccccc3)cc2)C2(CCCCC2)NCC1.Cl", "note": "[Example 25, 5-(4-biphenylyl)-1-azaspiro[5.5]undec-4-ene hydrochloride]", "values": [{"measurement": "Test 1 ED50 (dose causing 50% reversal of the reserpine-induced fall in body temperature)", "setting": "[1]; [2]", "result": "Inactive @ 30"}, {"measurement": "ED50", "setting": "reserpine-induced ptosis; [3]", "result": 9.9, "unit": "mg/kg"}]}
{"smiles": "Cl.Clc1ccc(C2=CCNC23CCCCC3)cc1", "note": "[Example 26, 4-(4-chlorophenyl)-1-azaspiro[4.5]dec-3-ene hydrochloride]", "values": [{"measurement": "Test 1 ED50 (dose causing 50% reversal of the reserpine-induced fall in body temperature)", "setting": "[1]; [2]", "result": "Inactive @ 30"}, {"measurement": "ED50", "setting": "reserpine-induced ptosis; [3]", "result": 5.6, "unit": "mg/kg"}]}
